According to article PMC9841533, “Microtubule-Stabilizing 1,2,4-Triazolo[1,5-a]pyrimidines as Candidate Therapeutics for Neurodegenerative Disease: Matched Molecular Pair Analyses and Computational Studies Reveal New Structure–Activity Insights” (Journal of Medicinal Chemistry, 2022):
Counter-ions that a name gives are not always drawn. Like-named read-outs stand apart in the source and are kept apart here.

Assays:
[1] = tested on: total α-tubulin (α-Tub) levels in QBI293 cells; test: QBI293 cell assay: total α-tubulin ELISA; format: cell-based
Protocol: (§1) All test compounds were initially screened in the same cell-based (QBI293) assay of MT stabilization used in our previous SAR studies[11],[12] so as to allow direct comparison with literature data. Changes in levels of acetylated α-tubulin (AcTub) and total α-tubulin (α-Tub), relative to vehicle-treated negative control cells, were determined after 4 h of incubation with test compounds at 1 and 10 μM. To account for possible day-to-day differences in the responsiveness of cells to MT-stabilizing treatment, compound-dependent changes in AcTub levels relative to DMSO-treated cells were also normalized to the corresponding changes caused by 100 nM of 5 that was used as a positive control. In addition, docking studies, binding free energy calculations, and in selected cases, molecular dynamic simulations were conducted using an X-ray structure of the vinca and seventh sites (PDB: 5NJH,[10]7CLD[13]). […] For selected compounds, additional studies included testing in the QBI293 cell AcTub assay at additional compound concentrations, and/or evaluation of test compounds for their ability to prevent MT collapse in primary neuron cultures treated with the phosphatase inhibitor, okadaic […] (OA). Finally, cytotoxicity studies in QBI293 and HeLa cells were also conducted for representative examples (Supporting Information).
(§2) Compound-induced changes in acetylated-tubulin and α-tubulin in QBI293 cells or primary mouse or rat neurons were as previously described.[11],[12] […] The plated cells were incubated overnight, after which the medium was aspirated and fresh medium containing vehicle (0.25–0.3% DMSO) or test compound was added. Test compounds were prepared as 4–20 mM stock solutions in 100% DMSO, and these were diluted in culture medium prior to addition to the QBI293 cells. After 4 h incubation, whole-cell extracts were prepared from the QBI293 cells as described[11] and the supernatant fraction from each sample was assessed for protein content by bicinchoninic acid (BCA) assay. The amount of acetyl-tubulin (AcTub) and α-tubulin (αTub) within the cell extract samples was quantified using specific enzyme-linked immunosorbent assays (ELISA), as previously described.[11] Acetyl-tubulin levels were determined in a similar manner in rat or mouse cortical neuron cultures in which embryonic dissociated cortical neurons were plated at 3 × 10^5 cells/well in poly-D-lysine-coated 12-well plates, essentially as previously described.[11] […] Culture homogenates were prepared for the determination of AcTub levels by ELISA as previously described.[11]

[2] = tested on: acetylated α-tubulin (AcTub) levels in QBI293 cells; test: QBI293 cell assay of MT stabilization: acetylated α-tubulin ELISA; format: cell-based
Protocol: as §1, §2

[3] = 4 h, 1 uM compound, read-out: AlfaTub (1uM)
[4] = 4 h, 10 uM compound, read-out: AlfaTub (10 uM)
[5] = 4 h incubation, 1 μM, read-out: α-Tub 1 μM, fold-change compared to vehicle (DMSO)-treated cells
[6] = 4 h incubation, 10 μM, read-out: α-Tub 10 μM, fold-change compared to vehicle (DMSO)-treated cells
[7] = 4 h, 1 uM compound, read-out: AcTub (1uM)
[8] = 4 h, 10 uM compound, read-out: AcTub (10 uM)
[9] = 4 h incubation, 1 μM, read-out: AcTub 1 μM, fold-change compared to vehicle (DMSO)-treated cells
[10] = 4 h incubation, 10 μM, read-out: AcTub 10 μM, fold-change compared to vehicle (DMSO)-treated cells

Compound | fold induction at 1 µM [1, 3] | fold induction at 10 µM [1, 4] | fold induction at 1 µM [1, 5] | fold induction at 10 µM [1, 6] | AcTub (1 uM - normalized) ([2]; 1 uM compound) | AcTub (10 uM - normalized) ([2]; 10 uM compound) | fold induction at 1 µM [2, 7] | fold induction at 10 µM [2, 8] | AcTub 1 μM, fold-change compared to positive control compound 5 (100 nM) (in parentheses) ([2]; 4 h incubation, 1 μM) | fold induction at 1 µM [2, 9] | AcTub 10 μM, fold-change compared to positive control compound 5 (100 nM) (in parentheses) ([2]; 4 h incubation, 10 μM) | fold induction at 10 µM [2, 10]
CN(C)CCCOc1cc(F)c(-c2c(Cl)nc3ncnn3c2NCC2CCC2)c(F)c1 [Compound 30, 5-Chloro-N-(cyclobutylmethyl)-6-(4-(3-(dimethylamino)propoxy)-2,6-difluorophenyl)-[1,2,4]triazolo[1,5-a]pyrimidin-7-amine] | 0.8 | 0.93 | 0.8 ± 0.03 | 0.93 ± 0.05 | 0.61 | 0.15 | 1.49 | 0.37 | 0.61 fold-change | 1.49 ± 0.18 | 0.15 fold-change | 0.37 ± 0.12
C[C@@H](Nc1c(-c2c(F)cc(C#CCN(C)C)cc2F)c(Cl)nc2ncnn12)C(C)(C)C [Compound 55, (R)-5-Chloro-6-(4-(3-(dimethylamino)prop-1-yn-1-yl)-2,6-difluorophenyl)-N-(3,3-dimethylbutan-2-yl)-[1,2,4]triazolo[1,5-a]pyrimidin-7-amine] | 1 | 0.84 | 1 ± 0.05 | 0.87 ± 0.01 | 0.45 | 1.43 | 1.36 | 4.32 | 0.45 fold-change | 1.36 ± 0.08 | 1.43 fold-change | 4.32 ± 0.28
C[C@H](Nc1c(-c2c(F)cc(OCCCCCO)cc2F)c(Cl)nc2ncnn12)C(F)(F)F [Compound 20, (S)-5-(4-(5-Chloro-7-((1,1,1-trifluoropropan-2-yl)amino)-[1,2,4]triazolo[1,5-a]pyrimidin-6-yl)-3,5-difluorophenoxy)pentan-1-ol] | 0.37 | 0.28 | 0.43 ± 0.07 | 0.36 ± 0.03 | 0.50 | 0.96 | 3.73 | 7.12 | 0.50 fold-change | 3.73 ± 0.22 | 0.96 fold-change | 7.12 ± 0.29
CNCC#Cc1cc(F)c(-c2c(Cl)nc3ncnn3c2N[C@H](C)C(C)C)c(F)c1 [Compound 51, (R)-5-Chloro-6-(2,6-difluoro-4-(3-(methylamino)prop-1-yn-1-yl)phenyl)-N-(3-methylbutan-2-yl)-[1,2,4]triazolo[1,5-a]pyrimidin-7-amine Hydrochloride] | 0.96 | 0.96 | 0.96 ± 0.01 | 0.96 ± 0.03 | 0.27 | 0.79 | 1.98 | 5.92 | 0.27 fold-change | 1.98 ± 0.09 | 0.79 fold-change | 5.92 ± 0.14
C[C@@H](Nc1c(-c2c(F)cc(C#CCCN)cc2F)c(Cl)nc2ncnn12)C(C)(C)C [Compound 57, (R)-6-(4-(4-Aminobut-1-yn-1-yl)-2,6-difluorophenyl)-5-chloro-N-(3,3-dimethylbutan-2-yl)-[1,2,4]triazolo[1,5-a]pyrimidin-7-amine Hydrochloride] | 0.96 | 0.91 | 0.96 ± 0.026 | 0.91 ± 0.12 | 0.83 | 1.21 | 2.49 | 3.66 | 0.83 fold-change | 2.49 ± 0.17 | 1.21 fold-change | 3.66 ± 0.58
C[C@H](Nc1c(-c2c(F)cc(OCCCCO)cc2F)c(Cl)nc2ncnn12)C(F)(F)F [Compound 19, (S)-4-(4-(5-Chloro-7-((1,1,1-trifluoropropan-2-yl)amino)-[1,2,4]triazolo[1,5-a]pyrimidin-6-yl)-3,5-difluorophenoxy)butan-1-ol] | 0.62 | 0.35 | 0.62 ± 0.05 | 0.35 ± 0.04 | 0.59 | 0.6 | 7.3 | 7.04 | 0.59 fold-change | 7.3 ± 1.51 | 0.6 fold-change | 7.04 ± 0.04
CNCC#Cc1cc(F)c(-c2c(Cl)nc3ncnn3c2N[C@H](C)C(C)(C)C)c(F)c1 [Compound 59, (R)-5-Chloro-6-(2,6-difluoro-4-(3-(methylamino)prop-1-yn-1-yl)phenyl)-N-(3,3-dimethylbutan-2-yl)-[1,2,4]triazolo[1,5-a]pyrimidin-7-amine Hydrochloride] | 0.93 | 1 | 0.93 ± 0.02 | 1 ± 0.03 | 0.81 | 1.16 | 6.03 | 8.67 | 0.81 fold-change | 6.03 ± 0.64 | 1.16 fold-change | 8.67 ± 0.16
C[C@H](Nc1c(-c2c(F)cc(F)cc2F)c(Cl)nc2ncnn12)C1CC1 [Compound 16, (S)-5-Chloro-N-(1-cyclopropylethyl)-6-(2,4,6-trifluorophenyl)-[1,2,4]triazolo[1,5-a]pyrimidin-7-amine] | 0.95 | 0.97 | 0.95 ± 0.02 | 0.97 ± 0.02 | 0.10 | 0.15 | 0.96 | 1.56 | 0.10 fold-change | 0.96 ± 0.06 | 0.15 fold-change | 1.56 ± 0.06
CC1(CNc2c(-c3c(F)cc(F)cc3F)c(Cl)nc3ncnn23)CC1 [Compound 13, 5-Chloro-N-((1-methylcyclopropyl)methyl)-6-(2,4,6-trifluorophenyl)-[1,2,4]triazolo[1,5-a]pyrimidin-7-amine] | 1.04 | 0.97 | 1.04 ± 0.07 | 0.97 ± 0.02 | 0.26 | 0.49 | 2.68 | 5.06 | 0.26 fold-change | 2.68 ± 0.24 | 0.49 fold-change | 5.06 ± 0.23
C[C@H](Nc1c(-c2c(F)cc(C#CCCO)cc2F)c(Cl)nc2ncnn12)C(F)(F)F [Compound 42, (S)-4-(4-(5-Chloro-7-((1,1,1-trifluoropropan-2-yl)amino)-[1,2,4]triazolo[1,5-a]pyrimidin-6-yl)-3,5-difluorophenyl)but-3-yn-1-ol] | 0.88 | 0.69 | 0.88 ± 0.01 | 0.69 ± 0.02 | 0.23 | 0.92 | 1.62 | 6.4 | 0.23 fold-change | 1.62 ± 0.05 | 0.92 fold-change | 6.4 ± 0.32
